Data taken from paper PMC8915833 (Proceedings of the National Academy of Sciences of the …, 2022).

Biological target: T1, PctA dCache_1 domain (Pseudomonas aeruginosa, UniProt G3XD24)
T1 sequence (G3XD24 32-276 limits assumed): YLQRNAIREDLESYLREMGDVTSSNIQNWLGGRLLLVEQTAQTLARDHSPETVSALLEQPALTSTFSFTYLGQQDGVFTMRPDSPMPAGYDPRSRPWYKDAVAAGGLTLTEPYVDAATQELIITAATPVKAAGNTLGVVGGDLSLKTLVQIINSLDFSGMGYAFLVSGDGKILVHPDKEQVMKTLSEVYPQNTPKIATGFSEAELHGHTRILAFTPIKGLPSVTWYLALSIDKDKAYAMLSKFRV
Experiment: isothermal titration calorimetry
Assay type: binding

## C[C@H](N)C(=O)O [L-Ala]
  KD: Isothermal titration calorimetry study of L-Ala binding to the wild type and the mutated
